The record followed here is patent US12070036B2, “Methods and compositions comprising nematode signalling compounds” (PHERONYM, INC., priority 2018, dated 2024).

In the assay the test system is RKN J2. Description: RKN J2 dispersal away from the pheromone application site. The class given is in vivo, Meloidogyne spp. The following applies: for activity as a repellent (in words): single ascarosides vs presented together. Here is the method:
FIG. 2. RKN J2 responds to pheromones purified from S. carpocapsae growth medium within 2 hours. The 57% MeOH extraction only contains one pheromone, ascr #10, which is also secreted by RKN. […] The 73% MeOH extraction includes both ascr #10 and ascr #18. Both of these pheromones are released by RKN J2. We can already see a synergy and recognition and 15% more J2 left the pheromone application spot due to recognition of the pheromone signals. […] The figure is representative of the 2 independent experiments repeated in time and each experiment has 6 independent replications.
FIG. 3. RKN J2 response to pheromones extracted from S. feltiae growth medium within 2 h of exposure. Control has only water. Pheromones resuspended in water. The experiment has 5 independent replications.
We extracted the pheromones with 58% and 73% Methyl alcohol using S. carpocapsae insect host cadavers, the growth medium for S. carpocapsae. Then the extracts were dried and re-suspended in MILLIQ water. Centrifuged at 6000 r.c.f. to remove insoluble material and then dried using a speed vac. […] This particular fraction only included one ascaroside, ascr #10, common between RKN and S. carpocapsae. […] The 73% MeOH extract contained two common pheromones, ascr #10 and ascr #18, between RKN and S. carpocapsae. The two pheromones together caused 15% more RKN J2 to move away from the application site compared to water control.
We tested this with one more Steinernema species growth medium. We extracted the pheromones using 70% MeOH from the S. feltiae growth medium (insect host cadavers). This particular extraction contains the two common ascarosides, ascr #10 and ascr #18, between RKN and Steinernema species.
Since ascr #10 and […] are the only common ascarosides between Steinernema and RKN species, we looked at other species that release ascarosides that RKN J2 release.

Consider `C[C@H](CCCCCCCCC(=O)O)O[C@@H]1O[C@@H](C)[C@H](O)C[C@H]1O` [ascr #18], for which the “activity as a repellent (in words)” value was “not active”.
In the case of `C[C@H](CCCCCCC(=O)O)O[C@@H]1O[C@@H](C)[C@H](O)C[C@H]1O` [ascr #10], the “activity as a repellent (in words)” value is “not active”. Moreover, the “RKN J2 response to pheromones (in words)” value (RKN J2, within 2 hours, vs water control) is on record as “did not elicit any response”.
